Values quoted from earlier work as cited in patent US20080038364A1, “Methods of processing body parts for surgery” (priority 2006, published 2008).
Like-named read-outs stand apart in the source and are kept apart here.

How the values were obtained:
[1] = tested on: bacteria, viruses and other microorganisms; conditions: compared with chlorine

O=[O+][O-] [ozone]
disinfectant power relative to chlorine [1]: 10 times | CT for Giardia Inactivation (Giardia; 0.5 log inactivation, 5 °C): 0.32 CT units | CT for Giardia Inactivation (Giardia; 0.5 log inactivation, 10 °C): 0.23 CT units | CT for Giardia Inactivation (Giardia; 0.5 log inactivation, 15 °C): 0.16 CT units | CT for Giardia Inactivation (Giardia; 0.5 log inactivation, 20 °C): 0.12 CT units | CT for Giardia Inactivation (Giardia; 0.5 log inactivation, 25 °C): 0.08 CT units | CT for Giardia Inactivation (Giardia; 1.0 log inactivation, 5 °C): 0.63 CT units | CT for Giardia Inactivation (Giardia; 1.0 log inactivation, 10 °C): 0.48 CT units | CT for Giardia Inactivation (Giardia; 1.0 log inactivation, 15 °C): 0.32 CT units | CT for Giardia Inactivation (Giardia; 1.0 log inactivation, 20 °C): 0.24 CT units | CT for Giardia Inactivation (Giardia; 1.0 log inactivation, 25 °C): 0.16 CT units | CT for Giardia Inactivation (Giardia; 1.5 log inactivation, 5 °C): 0.95 CT units | CT for Giardia Inactivation (Giardia; 1.5 log inactivation, 10 °C): 0.72 CT units | CT for Giardia Inactivation (Giardia; 1.5 log inactivation, 15 °C): 0.48 CT units | CT for Giardia Inactivation (Giardia; 1.5 log inactivation, 20 °C): 0.36 CT units | CT for Giardia Inactivation (Giardia; 1.5 log inactivation, 25 °C): 0.24 CT units | CT for Giardia Inactivation (Giardia; 2.0 log inactivation, 5 °C): 1.3 CT units | CT for Giardia Inactivation (Giardia; 2.0 log inactivation, 10 °C): 0.95 CT units | CT for Giardia Inactivation (Giardia; 2.0 log inactivation, 15 °C): 0.63 CT units | CT for Giardia Inactivation (Giardia; 2.0 log inactivation, 20 °C): 0.48 CT units | CT for Giardia Inactivation (Giardia; 2.0 log inactivation, 25 °C): 0.32 CT units | CT for Giardia Inactivation (Giardia; 2.5 log inactivation, 5 °C): 1.6 CT units | CT for Giardia Inactivation (Giardia; 2.5 log inactivation, 10 °C): 1.2 CT units | CT for Giardia Inactivation (Giardia; 2.5 log inactivation, 15 °C): 0.79 CT units | CT for Giardia Inactivation (Giardia; 2.5 log inactivation, 20 °C): 0.60 CT units | CT for Giardia Inactivation (Giardia; 2.5 log inactivation, 25 °C): 0.40 CT units | CT for Giardia Inactivation (Giardia; 3.0 log inactivation, 5 °C): 1.9 CT units | CT for Giardia Inactivation (Giardia; 3.0 log inactivation, 10 °C): 1.4 CT units | CT for Giardia Inactivation (Giardia; 3.0 log inactivation, 15 °C): 0.95 CT units | CT for Giardia Inactivation (Giardia; 3.0 log inactivation, 20 °C): 0.72 CT units | CT for Giardia Inactivation (Giardia; 3.0 log inactivation, 25 °C): 0.48 CT units | CT for Virus Inactivation (virus organisms; 2.0 log inactivation, 5 °C): 0.6 CT units | CT for Virus Inactivation (virus organisms; 2.0 log inactivation, 10 °C): 0.5 CT units | CT for Virus Inactivation (virus organisms; 2.0 log inactivation, 15 °C): 0.3 CT units | CT for Virus Inactivation (virus organisms; 2.0 log inactivation, 20 °C): 0.25 CT units | CT for Virus Inactivation (virus organisms; 2.0 log inactivation, 25 °C): 0.15 CT units | CT for Virus Inactivation (virus organisms; 3.0 log inactivation, 5 °C): 0.9 CT units | CT for Virus Inactivation (virus organisms; 3.0 log inactivation, 10 °C): 0.8 CT units | CT for Virus Inactivation (virus organisms; 3.0 log inactivation, 15 °C): 0.5 CT units | CT for Virus Inactivation (virus organisms; 3.0 log inactivation, 20 °C): 0.4 CT units | CT for Virus Inactivation (virus organisms; 3.0 log inactivation, 25 °C): 0.25 CT units | CT for Virus Inactivation (virus organisms; 4.0 log inactivation, 5 °C): 1.2 CT units | CT for Virus Inactivation (virus organisms; 4.0 log inactivation, 10 °C): 1.0 CT units | CT for Virus Inactivation (virus organisms; 4.0 log inactivation, 15 °C): 0.6 CT units | CT for Virus Inactivation (virus organisms; 4.0 log inactivation, 20 °C): 0.5 CT units | CT for Virus Inactivation (virus organisms; 4.0 log inactivation, 25 °C): 0.3 CT units | half-life of ozone gas breaking down to oxygen: 20 min
